Measured values from patent publication US5610185A, “Method for the treatment of hyperproliferative epithelial skin diseases by topical application of hydroxylated aromatic protein cross-linking compounds” (The United States of America as represented by the …, priority 1995, dated 1997).

System: athymic nude mouse skin
Assay: Acute topical toxicity on athymic nude mouse skin
Assay type: in vivo
Method: FIGS. 9A, 9B, 9C, 9D and 9E show color photographs. Topical Application of MC on Athymic Nude Mouse Skin. Histological sections were taken from paraffin-embedded tissue and were stained with hematoxylin and eosin. Panel a is vehicle control; panel b is 100 μM MC; panel c is 1 mM MC; panel d is 10 mM MC; and panel e is 100 mM MC. Magnification is 200x.
FIGS. 13A, 13B and 13C show color photographs of mice. […] Photographs were taken after animal sacrifice upon termination of the experiments.
Acute topical toxicity of MC was assessed by its application to athymic mouse skin and observation for inflammation, ulceration or other signs of toxicity after 5x weekly applications for 2 weeks and by microscopical analysis of paraffin-embedded sections of athymic mouse skin after MC application. Male nu/nu mice, 8 weeks old, were subdivided into 5 treatments groups and MC was administered topically in 10% DMSO in acetone vehicle. Mice were treated with a control vehicle, 100 μM MC, 1 mM MC, 10 mM MC or 100 mM MC. Treatment was 5 times per week for two weeks, after which animals were sacrificed and dorsal skin was fixed in Carnoy's solution at 4° C. for 24 hours followed by ethanol 100%. Histological sections were taken from paraffin-embedded tissue and were stained with hematoxylin and eosin. FIG. 13 illustrates the effect of MC on the skin of nude mice.
Male nu/nu mice, 8 weeks old, were subdivided into treatment groups and MC was administered topically to dorsal skin in 10% DMSO in acetone vehicle (25 μl). Treatment was 5 times per week for two weeks. […] MC itself is yellow-brown, so some discoloration would be expected due to drug deposition and accumulation at this high concentration.

## COC(=O)C=Cc1cc(O)ccc1O [MC, methyl 2,5-dihydroxycinnamate]
mouse, in vivo
  microscopy: inflammatory infiltrates: focal inflammatory infiltrates were visible
  microscopy: necrosis: no obvious necrosis
  microscopy: vacuolation of epidermal cells: some vacuolation of epidermal cells
  systemic toxicity or changes in skin at the application site: No changes were observed
Up to 10 mM, topical, normal athymic mouse skin
  acute toxicity or inflammation by microscopy: not acutely toxic or inflammatory
